Assay results reported in patent publication US12331061B2, “Compounds having BET, estrogen receptor, and androgen receptor degradation activity and uses thereof” (ACCUTAR BIOTECHNOLOGY INC., priority 2019, dated 2025).

How the values were obtained:
Experiment in all cases: Degradation of BET proteins in MCF7 cells, Western blot with densitometry
Type in all cases: cell-based
BRD4 = BRD4 (Homo sapiens, UniProt O60885); design: endogenous in cells; host or cells: MCF7; conditions: 24 hour time course experiment; shown only in FIG. 1c
Method: (§1) MCF7 cells were plated in 24-well plates at 1.5×10^5 cells/well in DMEM growth medium containing 10% FBS and 1% Penicillin Streptomycin, and incubated overnight at 37° C. The following day, test compound was administered to the cells using 1000× compound stock solution prepared in DMSO at various concentrations. […] Cells were then washed with PBS and protein was collected in Laemmli sample buffer (1×; VWR International). Protein was isolated from cell lysate (approximately 25 μg) by SDS-PAGE and transferred to nitrocellulose membranes. Non-specific binding was blocked by incubating with blocking buffer (5% milk in Tris-buffered saline with 0.1% Tween 20 (“TBS-T”)) at room temperature for 60 minutes. The membrane was then incubated with primary antibodies (rabbit anti-BRD2 (1:1000, Cell Signaling), mouse anti-GAPDH (1:5,000, Santa Cruz), mouse anti-BRD3 (1:500, Abcam) and rabbit anti-BRD4 (1:500, Abcam)) overnight at 4° C., followed by washing (3 times) with TBS-T, and incubation with horseradish peroxidase-conjugated […] IgG (1:5,000, Jackson Immunoresearch) or goat anti-mouse IgG (1:5,000, Jackson Immunoresearch) for 60 minutes. After washing with TBS-T, blots were developed using an enhanced chemiluminescence kit (ThermoFisher Scientific) and the bands were imaged and quantified by densitometry (Bio-Rad).

BRD3 = target: T1, BRD3 (Homo sapiens, UniProt Q15059); conditions: for degradative activity towards BRD3 over a 24 hour time course: 24 hour time course experiment, shown only in FIG. 1c; for degradative activity towards BRD3: MCF7 cell line, 6 hours after administration, shown only in FIG. 1a, 1b, 2
T1 construct: endogenous in cells; host or cells: MCF7
T1 sequence (Q15059 whole entry): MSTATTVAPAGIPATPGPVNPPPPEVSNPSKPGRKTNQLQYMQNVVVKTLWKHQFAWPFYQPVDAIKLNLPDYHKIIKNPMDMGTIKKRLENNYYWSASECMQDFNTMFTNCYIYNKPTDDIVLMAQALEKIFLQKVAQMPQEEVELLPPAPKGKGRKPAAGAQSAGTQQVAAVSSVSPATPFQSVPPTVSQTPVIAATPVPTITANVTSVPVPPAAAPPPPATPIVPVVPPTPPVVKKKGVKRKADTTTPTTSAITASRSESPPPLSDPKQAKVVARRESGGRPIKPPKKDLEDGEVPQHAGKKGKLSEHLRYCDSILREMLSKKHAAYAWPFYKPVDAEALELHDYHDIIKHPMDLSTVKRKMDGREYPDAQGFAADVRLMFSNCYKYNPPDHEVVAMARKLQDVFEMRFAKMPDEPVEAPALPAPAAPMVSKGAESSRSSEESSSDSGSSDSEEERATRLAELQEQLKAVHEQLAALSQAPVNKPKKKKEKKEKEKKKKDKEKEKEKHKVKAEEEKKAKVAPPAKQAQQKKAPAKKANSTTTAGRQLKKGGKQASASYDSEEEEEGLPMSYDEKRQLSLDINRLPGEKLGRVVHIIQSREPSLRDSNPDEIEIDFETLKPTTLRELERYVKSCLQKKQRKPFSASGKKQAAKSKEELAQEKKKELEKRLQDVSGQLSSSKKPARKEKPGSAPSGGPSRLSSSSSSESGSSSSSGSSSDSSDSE
Method: as §1

BRD2 = target: T2, BRD2 (Homo sapiens, UniProt P25440); conditions: for degradative activity towards BRD2 over a 24 hour time course: 24 hour time course experiment, shown only in FIG. 1c; for degradative activity towards BRD2: MCF7 cell line, 6 hours after administration, shown only in FIG. 1a, 1b, 2
T2 construct: MCF7 cells were plated in 24-well plates; endogenous in cells; host or cells: MCF7
T2 sequence (P25440 whole entry): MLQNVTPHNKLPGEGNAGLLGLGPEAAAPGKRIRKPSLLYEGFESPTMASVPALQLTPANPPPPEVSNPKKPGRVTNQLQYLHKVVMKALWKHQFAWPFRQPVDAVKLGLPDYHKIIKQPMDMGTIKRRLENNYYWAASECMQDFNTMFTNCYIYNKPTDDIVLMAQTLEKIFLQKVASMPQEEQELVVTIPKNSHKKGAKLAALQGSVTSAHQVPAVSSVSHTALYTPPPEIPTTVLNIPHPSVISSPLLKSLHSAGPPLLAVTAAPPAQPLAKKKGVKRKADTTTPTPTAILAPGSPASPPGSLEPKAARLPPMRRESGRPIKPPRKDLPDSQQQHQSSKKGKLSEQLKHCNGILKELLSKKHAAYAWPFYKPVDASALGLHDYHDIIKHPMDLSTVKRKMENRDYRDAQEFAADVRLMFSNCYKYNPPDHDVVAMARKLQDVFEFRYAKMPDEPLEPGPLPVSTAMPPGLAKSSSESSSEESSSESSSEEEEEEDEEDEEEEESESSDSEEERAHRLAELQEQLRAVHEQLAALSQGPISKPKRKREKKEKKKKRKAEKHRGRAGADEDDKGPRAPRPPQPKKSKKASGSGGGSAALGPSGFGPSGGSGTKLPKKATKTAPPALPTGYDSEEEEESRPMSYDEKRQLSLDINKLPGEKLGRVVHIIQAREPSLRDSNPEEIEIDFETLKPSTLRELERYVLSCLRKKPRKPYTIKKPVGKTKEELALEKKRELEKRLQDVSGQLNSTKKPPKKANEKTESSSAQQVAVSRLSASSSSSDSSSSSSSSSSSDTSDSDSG
Method: as §1

Cc1sc2c(c1C)C(c1ccc(Cl)cc1)=N[C@@H](CC(=O)NCCCCCCCCCCC(=O)Nc1ccc(CC(=O)NC3CCC(=O)NC3=O)cc1)c1nnc(C)n1-2 (stereo partly drawn) [Compound 253034, 11-(2-((S)-4-(4-chlorophenyl)-2,3,9-trimethyl-6H-thieno[3,2-f][1,2,4]triazolo[4,3-a][1,4]diazepin-6-yl)acetamido)-N-(4-(2-((2,6-dioxopiperidin-3-yl)amino)-2-oxoethyl)phenyl)undecanamide]
degradative activity: degradative activity towards BRD4 over a 24 hour time course (BRD4) | degradative activity towards BRD3 over a 24 hour time course (BRD3) | degradative activity towards BRD3 (BRD3) | degradative activity towards BRD2 over a 24 hour time course (BRD2) | degradative activity towards BRD2 (BRD2)

Cc1sc2c(c1C)C(c1ccc(Cl)cc1)=N[C@@H](CC(=O)NCCCCCCCCCCC(=O)Nc1cccc(CC(=O)NC3CCC(=O)NC3=O)c1)c1nnc(C)n1-2 (stereo partly drawn) [Compound 253035, 11-(2-((S)-4-(4-chlorophenyl)-2,3,9-trimethyl-6H-thieno[3,2-f][1,2,4]triazolo[4,3-a][1,4]diazepin-6-yl)acetamido)-N-(3-(2-((2,6-dioxopiperidin-3-yl)amino)-2-oxoethyl)phenyl)undecanamide]
degradative activity: degradative activity towards BRD4 over a 24 hour time course (BRD4) | degradative activity towards BRD3 over a 24 hour time course (BRD3) | degradative activity towards BRD3 (BRD3) | degradative activity towards BRD2 over a 24 hour time course (BRD2) | degradative activity towards BRD2 (BRD2)
